Results from publication PMC8406298, “Discovery of Fungus-Specific Targets and Inhibitors Using Chemical Phenotyping of Pathogenic Spore Germination” (mBio, 2021).

Experiments:
[1] = test system: Cryptococcus yeast (CHY3833 and CHY3836); assay: Yeast replication secondary screen (OD600); assay type: cell-based, Cryptococcus neoformans serotype D (deneoformans); settings: 10 μM, 12 h at 30°C
Protocol: (ii) Yeast replication. CHY3833 and CHY3836 were each grown in YPD liquid overnight at 30°C to saturation and then resuspended in 0.5× YPD at an OD600 of 0.005. Strains were aliquoted into 384-well plates with inhibitors and grown for 12 h at 30°C at […] before OD600 readings were taken. Compounds that caused a >10% decrease in growth were considered yeast growth inhibitors.

[2] = test system: normal human dermal fibroblasts (NHDF) cells; assay: Fibroblast cytotoxicity (CellTiter-Glo); assay type: cell-based; settings: 10 µM
Outline: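 Normal human dermal fibroblasts, 1 × 10^3 per well, exposed to compounds at 10 μM for 72 h at 37°C. Viability read as ATP-dependent CellTiter-Glo luminescence. Dose-response runs titrated compounds from 80 μM to 0.5 μM in duplicate.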

Structure (SMILES) | Yeast Inhibition: % Inhibition [1] [%] | Cytotoxicity: Relative Cell Viability (% of Negative Control) [2]
CCn1c(SC/C=C\c2ccccc2)nnc1-c1ccncc1 [compound 18558862] | 36.7 | 88.2 % of Negative Control
Clc1ccc2nc(SCCc3ccccc3)[nH]c2c1 [compound 955598] | 98.2 | 34.2 % of Negative Control
Cc1nc(NCc2ccccc2)c2ccsc2n1 [compound 2238994] | 84.9 | 75.7 % of Negative Control
CC(C)c1nc(-c2ccc(N3CCN(C(=O)Cc4cn(C)c5ccccc45)CC3)nc2)no1 [compound 71780502] | -2.9 | 91.8 % of Negative Control
Cc1nc(Oc2ccccc2)cc(N2CCN(C(=O)/C=C/c3ccccc3)CC2)n1 [compound 42065409] | 15.5 | 90.0 % of Negative Control
O=C(Nc1cccc(C(F)(F)F)c1)C1=Cc2ccccc2OC1 [compound 1475928] | 77.9 | 58.1 % of Negative Control
O=C1c2ccccc2S(=O)(=O)N1CC(O)COc1ccc(Cl)cc1Cl (centres unmarked) [compound 2943193] | 57.4 | 90.5 % of Negative Control
COC(=O)c1ccc(Cn2c(S(C)(=O)=O)nc3ccccc32)cc1 [compound 18576765] | 3.8 | 88.5 % of Negative Control
O=C(c1ccc2nsnc2c1)N1CCSC(c2ccccc2Cl)CC1 (centres unmarked) [compound 76151751] | 14.7 | 97.8 % of Negative Control
O=C(Nc1nc2ccccc2s1)C1CCCCN1S(=O)(=O)c1ccc(Cl)s1 (centres unmarked) [compound 16801811] | 24.0 | 86.9 % of Negative Control
COc1ccc2nc(NS(=O)(=O)c3ccc(Cl)s3)sc2c1 [compound 16934153] | -7.4 | 76.4 % of Negative Control
CC(C)Cc1nnc(NC(=O)C(Cl)Cl)s1 [compound 697528] | 71.6 | 96.1 % of Negative Control
Cc1cc(NC(=O)c2cccc(Oc3ccccc3)c2)on1 [compound 25813521] | 19.4 | 105.8 % of Negative Control
O=C1NC(=S)S/C1=C\c1ccc(OC(F)(F)F)cc1 [compound 16433415] | 82.9 | 79.7 % of Negative Control
O=C(NC1CCN(c2nccs2)C1)c1nc2ccccc2s1 (centres unmarked) [compound 76149097] | 10.4 | 94.5 % of Negative Control
C[n+]1sc(Nc2ccccc2)nc1-c1ccccc1 [compound 803194] | 98.4 | 16.5 % of Negative Control
COc1ccc(C2=CC(=O)C=CC2=O)cc1 [compound 121637] | 100.9 | 3.0 % of Negative Control
Cc1nc(C)c(C(=O)NCCn2ncc3c(N4CCN(c5ccc(F)cc5)CC4)ncnc32)s1 [compound 42099839] | 43.6 | 79.3 % of Negative Control
O=c1[nH]sc2ccccc12 [compound 17520] | 101.5 | 3.3 % of Negative Control

Structure (SMILES) | Yeast Inhibition: % Inhibition [1] [%] | Cytotoxicity: Relative Cell Viability (% of Negative Control) [2]
N#Cc1nc2c(nc1C#N)-c1ccccc1C2=O [compound 292929] | 100.6 | 5.9 % of Negative Control
Cc1ccc(OCCOCC(O)CN2CCN(c3ccc(F)cc3)CC2)cc1C (centres unmarked) [compound 16804490] | 17.9 | 94.5 % of Negative Control
O=C(CSc1ccc(F)cc1)N1CCC(c2ccsc2)CC1 [compound 71786989] | 16.0 | 102.2 % of Negative Control
O=S(=O)(NCCN1CCN(c2ccc(Cl)cc2)CC1)c1ccc(Cl)s1 [compound 42268033] | 19.1 | 102.4 % of Negative Control
Cc1ccc(S(=O)(=O)Nc2cc(Sc3nc[nH]n3)c(O)c3ccccc23)c(C)c1 [compound 2133779] | 98.3 | 3.5 % of Negative Control
Cc1nc(C)c(C(=O)NCCn2ncc3c(N4CCN(Cc5ccccc5)CC4)ncnc32)s1 [compound 27460748] | 22.5 | 112.9 % of Negative Control
O=C(CCSc1ccccc1)N1CCC(c2cccs2)CC1 [compound 71786877] | 10.0 | 89.8 % of Negative Control
O=C(Cc1cccc2ccccc12)N1CCC(c2ccsc2)CC1 [compound 71786990] | 8.3 | 94.3 % of Negative Control
COc1cccc2cc(-c3csc(NN=C4CCN(C)CC4)n3)c(=O)oc12 [compound 4913014] | 99.6 | 68.7 % of Negative Control
Cc1cc(C(=O)N(CCc2cccs2)C2CC2)c(C)o1 [compound 71781394] | 95.6 | 103.1 % of Negative Control
COc1ccc(NC(=O)CN2CCN(c3c(C)cccc3C)CC2)cc1 [compound 2200363] | 64.6 | 71.8 % of Negative Control
CC1CCN(c2ncnc3sccc23)CC1 [compound 2238992] | 73.6 | 70.0 % of Negative Control
Cc1ccc(NS(=O)(=O)N2CCCCCC2)cc1Cl [compound 8720355] | 45.8 | 71.9 % of Negative Control
O=C(NN1C(=O)/C(=C\c2ccco2)SC1=S)c1ccc(OC(F)F)cc1 [compound 1391595] | 65.6 | 93.6 % of Negative Control
CN(Cc1ccccc1)C(=O)COc1ccc(Br)cc1 [compound 4690650] | 25.9 | 66.8 % of Negative Control
CCOC(=O)N1CCN(C(c2ccccn2)c2c(-c3ccccc3)n(O)c3ccccc23)CC1 (centres unmarked) [compound 4081132] | 101.5 | 84.9 % of Negative Control
CC(=O)c1cccc(NC(=O)c2cc(Cl)sc2Cl)c1 [compound 7120750] | 72.7 | 79.8 % of Negative Control
NC(=O)c1ccsc1NC(=O)/C=C/c1ccccc1 [compound 6104220] | 51.7 | 50.8 % of Negative Control
